Data from US20230393140A1, “BINDING ASSAYS INVOLVING A PLURALITY OF SYNTHETIC COMPOUNDS, TARGETS, AND COUNTER TARGETS” (SRI International, priority 2020, published 2023).
Where two headings read alike, the source gives them in different places. Marks after values point to notes of the source that are not given here. Numbered stars: 1 amine (or outer) side, 2 acyl side, 3 side chain; on linkers, the order of the positions; unused ones are H or OH. Square brackets hold non-standard residues; d marks the D form. Peptide text beside a SMILES is read from it. * marks the point of attachment. 5FAM = O=C1OC2(c3ccc(O)cc3Oc3cc(O)ccc32)c2ccc(C(=O)*)cc21; NHCH2C6H4(4-CH2CONH2) = NC(=O)Cc1ccc(CN*)cc1; X1 = O=C(Cc1ccc(CN[*:1])cc1)[*:2]

Legend:
[1] = biological target: T1, K-Ras (Homo sapiens, UniProt P01116, G12V); assay: MST binding affinity of resynthesized NNP hits to K-Ras
T1 construct: purchased Cytoskeleton Inc. CS-RS04
Summary of the method: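 K-Ras G12V was GTP-loaded (EDTA exchange, 750 μM GTP, 2 h at 30° C, then MgCl2) and labeled with maleimide-647 dye. MST was run at room temperature in 20 mM HEPES pH 7.4, 150 mM NaCl, 10 mM MgCl2, 0.05% Tween-20, 1 mM DTT. Incubations lasted 15, 30 and 45 min; triplicate data fitted for affinity.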

[2] = biological target: T2, cRaf/K-Ras (G12V) PPI (Homo sapiens, UniProt P01116, G12V); assay: K-Ras-cRaf HTRF-based PPI profiling; assay type: biochemical; conditions: for blank corrected HTRF: raw data, compounds without fluorescein;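 as to blank corrected HTRF: background is the signal of wells with all components except cRaf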
T2 construct: b-Kras G12V (GppNHp) (aa 2-169); biotin (b-
Summary of the method: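 K-Ras(G12V) pre-incubated 30 min at room temperature with compound in 20 mM HEPES pH 7.4, 150 mM NaCl, 5 mM MgCl2, 1 mM DTT, 0.005% NP40, 1% DMSO, then cRaf added. HTRF read via anti-GST-Tb cryptate/streptavidin-XL665. % binding is relative to DMSO controls; curves fitted only if activity at top concentration fell below 65%.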

[3] = test system: biotinylated GST; assay: Interference check with biotinylated GST and detection mix
Text: Table 20 below provides an interference check on the synthetic compounds using biotinylated GST, which was used with the detection mix to check for compound effect on fluorescence.

[4] = biological target: TNFα (Homo sapiens, UniProt P01375); assay: MST binding affinity of resynthesized NNP hits to TNFα; parameters: purchased R&D Systems, Inc. 210-TA/CF; conditions: read-out: KD (nM) [95% conf. int], NNP2 library hit, target TNFα, one-site binding model
Chain of TNFα (P01375 77-233 limits assumed): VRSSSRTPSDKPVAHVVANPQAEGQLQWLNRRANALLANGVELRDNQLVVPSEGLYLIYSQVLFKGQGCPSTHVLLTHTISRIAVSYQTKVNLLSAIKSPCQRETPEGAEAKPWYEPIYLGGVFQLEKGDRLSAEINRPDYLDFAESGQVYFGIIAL
Method: Hit binding affinity to various targets were determined using Microscale Thermophoresis (MST). MST experiments were performed on a Monolith NT.115pico (NanoTemper Technologies GmbH, Munich, Germany). Measurements were performed at room temperature, in triplicate with incubation periods of 15, 30 and 45 minutes. […] Targets were labeled using Nanotemper Monolith 2nd Generation Protein Labeling Kits. RED-MALEIMIDE (Maleimide-647-dye) labeling kit was used for K-Ras and RED-NHS (NHS-647-dye) labeling kit was used for IL-6, IL-6R, TNFα and ASGPR. The buffer for the ASGPR contained 20 mM HEPES pH 7.4, 150 mM NaCl, 10 mM MgCl2, 2 mM CaCl2, 0.05% Pluronic F-127, and 1 mM DTT; for IL-6 contained 20 mM HEPES pH 7.4, 150 mM KCl, 10 mM MgCl2, and 0.1% Pluronic F-127; for the soluble IL-6 receptor 20 mM HEPES pH 7.4, 150 mM NaCl, 10 mM MgCl2, and 0.05% Tween-20; for K-Ras 20 mM HEPES pH 7.4, 150 mM NaCl, 10 mM MgCl2, 0.05% Tween-20 and 1 mM DTT; for TNFα 10 mM HEPES pH 7.4, 150 mM NaCl, 10 mM MgCl2, 0.05% Polysorbate-20. Triplicate data was analyzed using MO.AffinityAnalysis software (NanoTemper Technologies GmbH).

CC(C)C[C@H](NC(=O)[C@@H](CCC(=O)O)NC(=O)[C@H]1CCCN1C(=O)[C@@H](Cc1ccccc1)NC(=O)[C@@H](CO)NC(=O)c1ccc2c(c1)C(=O)OC21c2ccc(O)cc2Oc2cc(O)ccc21)C(=O)NCc1ccc(CC(=O)NCC(=O)N[C@@H](C(=O)N2CCC[C@@H]2C(=O)N[C@H](CCCNC(=N)N)C(=O)N[C@@H](C)C(=O)NCc2ccc(CC(=O)N3CCC[C@@H]3C(=O)N[C@H](CO)C(=O)N[C@H](CCC(=O)O)C(=O)N[C@H](CCCNC(=N)N)C(=O)NCC(=O)NCc3ccc(CC(=O)N4CCC[C@@H]4C(=O)N[C@H](CCCCN)C(=O)N[C@H](Cc4ccc(O)cc4)C(=O)N[C@H](CCCNC(=N)N)C(=O)N[C@@H](Cc4ccccc4)C(=O)NCc4ccc(CC(=O)N[C@H](CCCNC(=N)N)C(=O)N[C@H](Cc5ccccc5)C(=O)N5CCC[C@@H]5C(=O)N[C@@H](C(=O)NCC(=O)NCc5ccc(CC(=O)NCC(=O)N[C@H](Cc6c[nH]c7ccccc67)C(=O)N[C@H](Cc6c[nH]cn6)C(=O)N[C@H](CCCNC(=N)N)C(=O)N[C@@H](C)C(=O)NCc6ccc(CC(N)=O)cc6)cc5)C(C)C)cc4)cc3)cc2)C(C)C)cc1 [KRAS-1-9] (5FAM-[dS][dF][dP][dE]L[X1]G[dV][dP][dR]A[X1][dP][dS][dE][dR]G[X1][dP][dK][dY][dR]F[X1][dR][dF][dP][dV]G[X1]G[dW][dH][dR]A-{NHCH2C6H4(4-CH2CONH2)})
Kd ([1]; K-Ras, compound with fluorescein on N-term, read-out: KD[nM] in MST (with fluorescein on N-term)): 32 nM
Kd ([1]; read-out: KD (nM) [95% conf. int], MST, NNP1 library hit, target K-Ras, one-site binding model): 32 nM
HillSlope ([2]; curve fit of % binding, K-Ras G12V 30 nM, GST-cRaf 10 nM): −0.9902
blank corrected HTRF ([2]; conc. 1.00E−05): 4707
blank corrected HTRF ([2]; conc. 1.11E−06): 7790
blank corrected HTRF ([2]; conc. 1.37E−08): 12329
blank corrected HTRF ([2]; conc. 3.33E−06): 3269
blank corrected HTRF ([2]; conc. 3.70E−07): 12513
blank corrected HTRF ([2]; conc. 4.12E−08): 14333
blank corrected HTRF ([2]; conc. 4.57E−09): 13688
% signal compared to DMSO ([3]; assay conc. 0.000508053 μM): 99.72%
% signal compared to DMSO ([3]; assay conc. 0.001524158 μM): 102.8%
% signal compared to DMSO ([3]; assay conc. 0.004572474 μM): 100.2%
% signal compared to DMSO ([3]; assay conc. 0.013717421 μM): 101.4%
% signal compared to DMSO ([3]; assay conc. 0.041152263 μM): 102.8%
% signal compared to DMSO ([3]; assay conc. 0.12345679 μM): 101.5%
% signal compared to DMSO ([3]; assay conc. 0.37037037 μM): 99.8%
% signal compared to DMSO ([3]; assay conc. 1.111111111 μM): 92.41%
% signal compared to DMSO ([3]; assay conc. 3.333333333 μM): 69.59%
% signal compared to DMSO ([3]; assay conc. 10 μM): 53.69* %

CC(C)C[C@H](NC(=O)[C@@H](CCCCN)NC(=O)[C@@H](Cc1ccccc1)NC(=O)Cc1ccc(CNC(=O)[C@H](CC(C)C)NC(=O)[C@@H](CCCCN)NC(=O)[C@@H](CC(C)C)NC(=O)Cc2ccc(CNC(=O)[C@H](Cc3ccccc3)NC(=O)[C@@H](C)NC(=O)[C@@H](C)NC(=O)Cc3ccc(CNC(=O)[C@H](CC(C)C)NC(=O)[C@H](NC(=O)[C@@H](CCCCN)NC(=O)c4ccc5c(c4)C(=O)OC54c5ccc(O)cc5Oc5cc(O)ccc54)C(C)C)cc3)cc2)cc1)C(=O)NCc1ccc(CC(=O)N[C@H](Cc2c[nH]c3ccccc23)C(=O)N[C@H](CCCNC(=N)N)C(=O)N[C@H](C(=O)NCc2ccc(CC(=O)N[C@H](CO)C(=O)N[C@H](CO)C(=O)N[C@@H](Cc3ccccc3)C(=O)NCc3ccc(CC(=O)N[C@H](Cc4c[nH]cn4)C(=O)N[C@H](CCC(=O)O)C(=O)N[C@@H](CC(C)C)C(=O)NCc4ccc(CC(=O)N[C@H](Cc5ccccc5)C(=O)N[C@H](CCCCN)C(=O)N[C@@H](Cc5ccccc5)C(=O)NCc5ccc(CC(=O)N[C@@H](C(=O)N[C@H](CCC(=O)O)C(=O)N[C@@H](CC(C)C)C(=O)NCc6ccc(CC(N)=O)cc6)[C@H](C)O)cc5)cc4)cc3)cc2)C(C)C)cc1 [TNF-31-2] (5FAM-[dK][dV]L[X1][dA][dA]F[X1][dL][dK]L[X1][dF][dK]L[X1][dW][dR]V[X1][dS][dS]F[X1][dH][dE]L[X1][dF][dK]F[X1][dT][dE]L-{NHCH2C6H4(4-CH2CONH2)})
Kd [4]: 23 nM

CC(C)C[C@H](NC(=O)[C@@H](CCCNC(=N)N)NC(=O)[C@@H](Cc1c[nH]c2ccccc12)NC(=O)Cc1ccc(CNC(=O)[C@H](CC(C)C)NC(=O)[C@@H](CCCCN)NC(=O)[C@@H](CC(C)C)NC(=O)Cc2ccc(CNC(=O)[C@H](CC(C)C)NC(=O)[C@@H](CCCNC(=N)N)NC(=O)[C@@H](CC(C)C)NC(=O)Cc3ccc(CNC(=O)[C@H](Cc4ccccc4)NC(=O)[C@@H](CC(C)C)NC(=O)[C@H](NC(=O)c4ccc5c(c4)C(=O)OC54c5ccc(O)cc5Oc5cc(O)ccc54)[C@H](C)O)cc3)cc2)cc1)C(=O)NCc1ccc(CC(=O)N[C@H](C)C(=O)N[C@H](CCCCN)C(=O)N[C@@H](Cc2ccccc2)C(=O)NCc2ccc(CC(=O)N[C@H](CCC(=O)O)C(=O)N[C@H](CO)C(=O)N[C@H](C(=O)NCc3ccc(CC(=O)N4CCC[C@@H]4C(=O)N[C@@H](C(=O)NCC(=O)NCc4ccc(CC(=O)N[C@H](CCC(=O)O)C(=O)N[C@H](Cc5ccc(O)cc5)C(=O)N[C@@H](Cc5ccccc5)C(=O)NCc5ccc(CC(=O)N[C@H](Cc6ccc(O)cc6)C(=O)N[C@H](CCCNC(=N)N)C(=O)N[C@@H](Cc6ccccc6)C(=O)NCc6ccc(CC(N)=O)cc6)cc5)cc4)C(C)C)cc3)C(C)C)cc2)cc1 [TNF-31-4] (5FAM-[dT][dL]F[X1][dL][dR]L[X1][dL][dK]L[X1][dW][dR]L[X1][dA][dK]F[X1][dE][dS]V[X1][dP][dV]G[X1][dE][dY]F[X1][dY][dR]F-{NHCH2C6H4(4-CH2CONH2)})
Kd [4]: 33 nM

CC(C)C[C@H](NC(=O)[C@@H](CCCNC(=N)N)NC(=O)CNC(=O)Cc1ccc(CNC(=O)[C@H](CC(C)C)NC(=O)[C@H](NC(=O)[C@@H](CCCCN)NC(=O)c2ccc3c(c2)C(=O)OC32c3ccc(O)cc3Oc3cc(O)ccc32)C(C)C)cc1)C(=O)NCc1ccc(CC(=O)N[C@H](Cc2ccccc2)C(=O)N[C@H](CCC(=O)O)C(=O)N[C@H](C(=O)NCc2ccc(CC(=O)N3CCC[C@@H]3C(=O)N[C@H](CCCNC(=N)N)C(=O)N[C@H](C(=O)NCc3ccc(CC(=O)N[C@H](C)C(=O)N[C@H](CCCCN)C(=O)N[C@@H](Cc4ccccc4)C(=O)NCc4ccc(CC(=O)N[C@H](CCC(=O)O)C(=O)N[C@H](CO)C(=O)N[C@H](C(=O)NCc5ccc(CC(=O)N6CCC[C@@H]6C(=O)N[C@@H](C(=O)NCC(=O)NCc6ccc(CC(=O)N[C@@H](C(=O)N[C@H](Cc7c[nH]cn7)C(=O)N[C@@H](CC(C)C)C(=O)NCc7ccc(CC(=O)N[C@H](Cc8ccc(O)cc8)C(=O)N[C@H](CCCNC(=N)N)C(=O)N[C@@H](Cc8ccccc8)C(=O)NCc8ccc(CC(N)=O)cc8)cc7)[C@H](C)O)cc6)C(C)C)cc5)C(C)C)cc4)cc3)C(C)C)cc2)C(C)C)cc1 [TNF-31-5] (5FAM-[dK][dV]L[X1]G[dR]L[X1][dF][dE]V[X1][dP][dR]V[X1][dA][dK]F[X1][dE][dS]V[X1][dP][dV]G[X1][dT][dH]L[X1][dY][dR]F-{NHCH2C6H4(4-CH2CONH2)})
Kd [4]: 24 nM
